Laboratory results: ChEMBL document CHEMBL1777740, “Toward self-adjuvanting subunit vaccines: model peptide and protein antigens incorporating covalently bound toll-like receptor-7 agonistic imidazoquinolines” (Bioorg Med Chem Lett, 2011)
Active and inactive are the calls of the source. No cut-off for these calls is given here.

How the values were obtained:
Assay type in all cases: functional, cell-based
PBMC [1] = experiment: Immunostimulatory activity in human PBMC assessed as Th1-biased immunostimulatory activity measured as IL18 release by ELISA
PBMC [2] = experiment: Immunostimulatory activity in human PBMC assessed as Th1-biased immunostimulatory activity measured as IFNalpha release by ELISA
PBMC [3] = experiment: Immunostimulatory activity in human PBMC assessed as Th1-biased immunostimulatory activity measured as IFN-gamma release by ELISA
PBMC [4] = experiment: Immunostimulatory activity in human PBMC assessed as Th1-biased immunostimulatory activity measured as IL12 release by ELISA
[5] = target: T1, Toll-like receptor 7 (Homo sapiens) (UniProt Q9NYK1); experiment: Agonist activity at human TLR7 transfected in HEK reporter cells assessed as NF-kappaB induction by specific secreted alkaline phosphatase gene assay; conditions: HEK293
T1 sequence (whole entry): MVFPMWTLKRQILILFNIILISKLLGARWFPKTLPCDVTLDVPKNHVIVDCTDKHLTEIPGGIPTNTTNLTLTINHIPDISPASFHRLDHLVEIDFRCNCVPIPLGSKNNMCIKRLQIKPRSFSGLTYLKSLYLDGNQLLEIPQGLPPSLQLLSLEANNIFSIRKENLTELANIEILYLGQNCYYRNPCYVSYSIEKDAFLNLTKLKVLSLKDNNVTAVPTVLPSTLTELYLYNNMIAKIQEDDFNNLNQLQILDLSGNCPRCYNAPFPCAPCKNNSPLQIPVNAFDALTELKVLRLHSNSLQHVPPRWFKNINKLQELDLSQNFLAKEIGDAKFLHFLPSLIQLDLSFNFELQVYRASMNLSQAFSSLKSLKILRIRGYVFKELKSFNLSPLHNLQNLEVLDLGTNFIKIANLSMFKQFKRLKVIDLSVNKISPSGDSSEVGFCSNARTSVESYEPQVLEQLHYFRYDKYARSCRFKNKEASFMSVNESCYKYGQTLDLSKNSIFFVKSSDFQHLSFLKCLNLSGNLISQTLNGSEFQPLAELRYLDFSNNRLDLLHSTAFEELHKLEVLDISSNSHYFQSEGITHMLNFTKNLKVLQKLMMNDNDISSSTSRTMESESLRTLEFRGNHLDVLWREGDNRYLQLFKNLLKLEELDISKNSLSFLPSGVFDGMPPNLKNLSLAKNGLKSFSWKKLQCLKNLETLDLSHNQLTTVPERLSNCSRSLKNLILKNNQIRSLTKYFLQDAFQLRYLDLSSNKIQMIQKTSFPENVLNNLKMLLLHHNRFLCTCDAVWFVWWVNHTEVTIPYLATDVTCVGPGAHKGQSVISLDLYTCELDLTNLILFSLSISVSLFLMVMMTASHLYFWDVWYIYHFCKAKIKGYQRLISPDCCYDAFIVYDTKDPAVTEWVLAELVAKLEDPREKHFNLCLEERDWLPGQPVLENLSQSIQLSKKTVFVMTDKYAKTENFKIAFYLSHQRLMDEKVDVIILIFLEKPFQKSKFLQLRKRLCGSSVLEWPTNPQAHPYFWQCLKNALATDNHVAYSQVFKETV

CCCCc1nc2c(N)nc3ccccc3c2n1Cc1ccc(CN)cc1
Activity (PBMC [1]): Active | Activity (PBMC [2]): Active | Activity (PBMC [3]): Active | Activity (PBMC [4]): Active

CCCCc1nc2c(N)nc3ccccc3c2n1Cc1ccc(CNC(=O)CCN2C(=O)CC(SC[C@@H](NC(=O)CC[C@@H](N)C(=O)O)C(=O)NCC(=O)O)C2=O)cc1 (stereo not given in full)
Activity [5]: inactive
